Among the data in PubChem BioAssay (NCI) are TGI values, retold here.

Common to all, as to experiment: NCI anticancer screen, dose series, 48 h
For experiment [1], the system named is NCI/ADR-RES ovarian.
For experiment [2], the system named is COLO 205 colon.
The subject of experiment [3] is HL-60(TB) leukemia.
Experiment [4] relates to SK-MEL-2 melanoma.
In experiment [5] the test system is ACHN renal.
The test system of experiment [6] is NCI-H522 lung.
The subject of experiment [7] is T-47D breast.
The subject of experiment [8] is OVCAR-3 ovarian.
Experiment [9] concerns DU-145 prostate.
Experiment [10] relates to CAKI-1 renal.
Experiment [11] has as its system MDA-MB-435.
The subject of experiment [12] is K-562 leukemia.
Experiment [13] relates to SNB-78 CNS.
In experiment [14] the test system is HCT-116 colon.
In experiment [15] the test system is SK-OV-3 ovarian.
Experiment [16] deals with HT29 colon.
In experiment [17] the test system is UACC-62 melanoma.
Experiment [18] has as its system HOP-18 NSCLC.
Experiment [19] relates to M19-MEL melanoma.
Experiment [20] has as its system KM20L2 colon.

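These data come from cells grown in 96-well plates and exposed to compound for 48 hours at five concentrations. At the TGI there is no net growth.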

For the compound `O=c1cnn(C/C=C\CO)c(=O)[nH]1`, the TGI in experiment [1], in experiment [2], in experiment [3], in experiment [4], in experiment [5] and in experiment [6] was > 100 µM throughout. The TGI in [7], in experiment [8], in experiment [9], in experiment [10], in experiment [11] and in experiment [12] was > 100 µM each time.

For `O=C(Nc1cccc2ccccc12)Oc1ccccc1C1CCCCC1`, the TGI in [13] stood at 57.9 µM; in experiment [14], 32.2 µM; in experiment [15], 67.7 µM; in [16] it was 34.1 µM; in experiment [17], 30.5 µM; in [3] it was 64.2 µM. Moreover, the TGI in experiment [4] came to 40.4 µM; in experiment [18], 33.2 µM; in experiment [19], 43.4 µM; in experiment [8], 39.5 µM; in [20], 47.5 µM; in [12], 60.4 µM.

As for `Cn1cnc([N+](=O)[O-])c1Sc1nc2cc(Cl)c(F)cc2[nH]1`, the TGI came to 25.9 µM in [13]; 20.6 µM in experiment [14]; 61.9 µM in experiment [15]; 47.3 µM in experiment [16]; 28.6 µM in experiment [17]; 22 µM in [2]. Besides, the TGI is 29 µM in experiment [18]; 34.1 µM in experiment [5]; 23.9 µM in [19]; 26.9 µM in experiment [20]; 14.4 µM in experiment [10].
